This note sets out measurements from patent US9540348B2, “Imidazole-1-yl pyrimidine derivatives, or pharmacutically acceptable salt thereof, and pharmaceutic composition comprising the same as an active ingredient” (Industry-University Cooperation Foundation Hanyang …, priority 2015, dated 2017).

Entries after “also recorded” stand apart in the source; their conditions may differ.

Assay [1] deals with A375P human melanoma cell line. The assay can be described thus: Antiproliferative activity to A375P human melanoma cell line. The assay is classed as cell-based. The method, then: The antiproliferative activity of the compounds of Examples to A375P human melanoma cell line and U937 human leukemic monocyte lymphoma cell line are evaluated and listed in the following Table 1.

In the next assay the target is Aurora A (Homo sapiens, UniProt O14965). The assay can be described thus: Kinase panel screening. Format: biochemical. The conditions noted are these: 10 μM concentration; read-out: Inhibition Rate (Unit: %) Aurora A. The method, then:
(§1) To Compound 10c of Example 23, kinase panel screening was carried out to 32 kinds of kinases in 10 μM concentration and the results are listed in the following Table 2.

In a further assay the test system is PKA. The assay can be described thus: Kinase panel screening. The settings on record: 10 μM concentration. The assay is classed as biochemical. As for the experimental part:
as §1

A further assay has as its target JNK3 (Homo sapiens, UniProt P53779). Nature of the assay: Kinase panel screening. The conditions noted are these: 10 μM concentration; read-out: Inhibition Rate (Unit: %) JNK3. Format: biochemical. As for the experimental part:
as §1

The target of a further assay is LCK (Homo sapiens, UniProt P06239). The assay can be described thus: Kinase panel screening. The assay is classed as biochemical. The conditions noted are these: 10 μM concentration; read-out: Inhibition Rate (Unit: %) LCK. The method, then: as §1
The next assay concerns the target CDK1/cyclin B (Homo sapiens, UniProt P06493). The assay can be described thus: Kinase panel screening. Format: biochemical. The conditions noted are these: 10 μM concentration; read-out: Inhibition Rate (Unit: %) CDK1/cyclin B. The method, then: as §1
For a further assay, the target named is BRAF (V600E) (Homo sapiens, UniProt P15056, V600E). Nature of the assay: Kinase panel screening. Format: biochemical. The settings on record: 10 μM concentration. As for the experimental part: as §1
The target of another assay is RON/MST1R (Homo sapiens, UniProt Q04912). The assay can be described thus: Kinase panel screening. Format: biochemical. The settings on record: 10 μM concentration; read-out: Inhibition Rate (Unit: %) RON/MST1R. As for the experimental part: as §1
A further assay has as its target BRAF (Homo sapiens, UniProt P15056). Nature of the assay: Kinase panel screening. The conditions noted are these: 10 μM concentration. Format: biochemical. As for the experimental part:
as §1

BRAF (V600E), sequence (P15056 whole entry V600E): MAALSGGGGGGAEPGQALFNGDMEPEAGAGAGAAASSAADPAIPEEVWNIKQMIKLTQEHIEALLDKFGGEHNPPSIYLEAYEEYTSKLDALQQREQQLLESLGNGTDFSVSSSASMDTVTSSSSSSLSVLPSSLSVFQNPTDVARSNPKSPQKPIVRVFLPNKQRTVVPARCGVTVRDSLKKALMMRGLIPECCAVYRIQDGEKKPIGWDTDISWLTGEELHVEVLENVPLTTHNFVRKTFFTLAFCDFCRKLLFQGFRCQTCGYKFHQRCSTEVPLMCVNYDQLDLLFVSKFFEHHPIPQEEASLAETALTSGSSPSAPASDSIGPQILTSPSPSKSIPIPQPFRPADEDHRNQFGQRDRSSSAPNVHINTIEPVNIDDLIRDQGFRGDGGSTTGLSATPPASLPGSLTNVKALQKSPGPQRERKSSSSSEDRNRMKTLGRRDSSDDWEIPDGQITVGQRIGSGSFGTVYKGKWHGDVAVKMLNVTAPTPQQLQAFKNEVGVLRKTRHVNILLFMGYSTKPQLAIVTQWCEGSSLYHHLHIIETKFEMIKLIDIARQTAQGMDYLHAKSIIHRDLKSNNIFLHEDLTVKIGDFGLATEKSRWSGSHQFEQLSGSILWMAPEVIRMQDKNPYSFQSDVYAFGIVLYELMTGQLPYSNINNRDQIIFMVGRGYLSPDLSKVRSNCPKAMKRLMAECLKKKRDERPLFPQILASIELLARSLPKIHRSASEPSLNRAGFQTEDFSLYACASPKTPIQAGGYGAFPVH
BRAF, sequence (P15056 whole entry): as the sequence (P15056 whole entry V600E) above, with E600V counted along it
CDK1/cyclin B, sequence (P06493 whole entry, species assumed): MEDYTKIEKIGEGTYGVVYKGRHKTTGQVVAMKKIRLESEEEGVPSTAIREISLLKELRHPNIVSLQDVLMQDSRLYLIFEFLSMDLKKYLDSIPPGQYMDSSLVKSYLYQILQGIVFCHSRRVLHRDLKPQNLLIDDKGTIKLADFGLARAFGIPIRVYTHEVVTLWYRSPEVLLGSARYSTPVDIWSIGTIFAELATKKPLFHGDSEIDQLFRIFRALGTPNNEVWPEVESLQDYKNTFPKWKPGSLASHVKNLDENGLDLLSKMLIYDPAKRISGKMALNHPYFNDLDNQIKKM
CDK1/cyclin B, sequence (P14635 whole entry partner, species assumed): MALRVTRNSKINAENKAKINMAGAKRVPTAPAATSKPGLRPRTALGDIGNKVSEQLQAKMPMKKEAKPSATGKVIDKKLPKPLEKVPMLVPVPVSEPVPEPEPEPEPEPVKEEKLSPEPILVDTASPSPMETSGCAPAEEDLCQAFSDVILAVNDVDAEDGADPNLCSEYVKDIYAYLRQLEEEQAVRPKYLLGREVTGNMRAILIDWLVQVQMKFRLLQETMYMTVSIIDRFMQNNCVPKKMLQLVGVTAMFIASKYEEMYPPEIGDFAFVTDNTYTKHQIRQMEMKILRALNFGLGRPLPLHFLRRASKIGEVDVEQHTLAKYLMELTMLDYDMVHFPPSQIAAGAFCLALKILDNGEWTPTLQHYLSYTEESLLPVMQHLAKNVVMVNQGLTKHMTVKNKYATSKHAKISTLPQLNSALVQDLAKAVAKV
LCK, sequence (P06239 whole entry, species assumed): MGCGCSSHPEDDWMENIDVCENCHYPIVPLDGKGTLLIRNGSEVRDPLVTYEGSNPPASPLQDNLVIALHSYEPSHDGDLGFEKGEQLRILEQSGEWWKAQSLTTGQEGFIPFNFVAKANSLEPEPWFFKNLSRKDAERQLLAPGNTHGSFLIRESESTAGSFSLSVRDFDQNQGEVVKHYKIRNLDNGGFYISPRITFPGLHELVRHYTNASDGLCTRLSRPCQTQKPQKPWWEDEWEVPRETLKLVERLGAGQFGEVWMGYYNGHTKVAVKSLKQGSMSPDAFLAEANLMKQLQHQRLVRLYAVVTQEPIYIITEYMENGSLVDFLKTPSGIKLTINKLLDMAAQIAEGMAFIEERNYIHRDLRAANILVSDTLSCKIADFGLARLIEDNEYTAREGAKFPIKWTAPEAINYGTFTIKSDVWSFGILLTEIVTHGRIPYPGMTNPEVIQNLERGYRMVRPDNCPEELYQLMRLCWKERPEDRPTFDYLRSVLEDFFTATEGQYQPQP
Aurora A, sequence (O14965 whole entry): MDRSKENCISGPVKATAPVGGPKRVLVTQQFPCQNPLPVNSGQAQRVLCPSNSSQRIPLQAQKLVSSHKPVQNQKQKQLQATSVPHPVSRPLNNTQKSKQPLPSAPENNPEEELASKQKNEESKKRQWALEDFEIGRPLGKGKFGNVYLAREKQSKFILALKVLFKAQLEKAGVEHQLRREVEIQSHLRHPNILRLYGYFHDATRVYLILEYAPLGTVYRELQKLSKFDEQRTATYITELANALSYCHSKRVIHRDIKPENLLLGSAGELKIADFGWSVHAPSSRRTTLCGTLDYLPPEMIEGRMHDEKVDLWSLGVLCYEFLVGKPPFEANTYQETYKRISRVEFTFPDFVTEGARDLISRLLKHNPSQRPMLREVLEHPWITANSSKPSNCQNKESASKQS
JNK3, sequence (P53779 whole entry, species assumed): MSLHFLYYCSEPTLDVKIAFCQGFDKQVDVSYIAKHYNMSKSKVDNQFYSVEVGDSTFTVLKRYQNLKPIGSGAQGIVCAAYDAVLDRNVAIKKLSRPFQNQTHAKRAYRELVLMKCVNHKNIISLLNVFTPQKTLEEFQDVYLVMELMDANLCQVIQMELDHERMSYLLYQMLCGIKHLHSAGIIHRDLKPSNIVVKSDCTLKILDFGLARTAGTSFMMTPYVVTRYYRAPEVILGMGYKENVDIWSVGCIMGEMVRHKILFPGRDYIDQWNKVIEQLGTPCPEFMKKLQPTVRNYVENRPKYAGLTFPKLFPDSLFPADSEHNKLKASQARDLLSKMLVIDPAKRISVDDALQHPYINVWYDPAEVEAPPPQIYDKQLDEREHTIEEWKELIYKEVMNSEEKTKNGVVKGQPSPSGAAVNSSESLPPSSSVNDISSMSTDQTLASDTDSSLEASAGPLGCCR
RON/MST1R, sequence (Q04912 25-1400): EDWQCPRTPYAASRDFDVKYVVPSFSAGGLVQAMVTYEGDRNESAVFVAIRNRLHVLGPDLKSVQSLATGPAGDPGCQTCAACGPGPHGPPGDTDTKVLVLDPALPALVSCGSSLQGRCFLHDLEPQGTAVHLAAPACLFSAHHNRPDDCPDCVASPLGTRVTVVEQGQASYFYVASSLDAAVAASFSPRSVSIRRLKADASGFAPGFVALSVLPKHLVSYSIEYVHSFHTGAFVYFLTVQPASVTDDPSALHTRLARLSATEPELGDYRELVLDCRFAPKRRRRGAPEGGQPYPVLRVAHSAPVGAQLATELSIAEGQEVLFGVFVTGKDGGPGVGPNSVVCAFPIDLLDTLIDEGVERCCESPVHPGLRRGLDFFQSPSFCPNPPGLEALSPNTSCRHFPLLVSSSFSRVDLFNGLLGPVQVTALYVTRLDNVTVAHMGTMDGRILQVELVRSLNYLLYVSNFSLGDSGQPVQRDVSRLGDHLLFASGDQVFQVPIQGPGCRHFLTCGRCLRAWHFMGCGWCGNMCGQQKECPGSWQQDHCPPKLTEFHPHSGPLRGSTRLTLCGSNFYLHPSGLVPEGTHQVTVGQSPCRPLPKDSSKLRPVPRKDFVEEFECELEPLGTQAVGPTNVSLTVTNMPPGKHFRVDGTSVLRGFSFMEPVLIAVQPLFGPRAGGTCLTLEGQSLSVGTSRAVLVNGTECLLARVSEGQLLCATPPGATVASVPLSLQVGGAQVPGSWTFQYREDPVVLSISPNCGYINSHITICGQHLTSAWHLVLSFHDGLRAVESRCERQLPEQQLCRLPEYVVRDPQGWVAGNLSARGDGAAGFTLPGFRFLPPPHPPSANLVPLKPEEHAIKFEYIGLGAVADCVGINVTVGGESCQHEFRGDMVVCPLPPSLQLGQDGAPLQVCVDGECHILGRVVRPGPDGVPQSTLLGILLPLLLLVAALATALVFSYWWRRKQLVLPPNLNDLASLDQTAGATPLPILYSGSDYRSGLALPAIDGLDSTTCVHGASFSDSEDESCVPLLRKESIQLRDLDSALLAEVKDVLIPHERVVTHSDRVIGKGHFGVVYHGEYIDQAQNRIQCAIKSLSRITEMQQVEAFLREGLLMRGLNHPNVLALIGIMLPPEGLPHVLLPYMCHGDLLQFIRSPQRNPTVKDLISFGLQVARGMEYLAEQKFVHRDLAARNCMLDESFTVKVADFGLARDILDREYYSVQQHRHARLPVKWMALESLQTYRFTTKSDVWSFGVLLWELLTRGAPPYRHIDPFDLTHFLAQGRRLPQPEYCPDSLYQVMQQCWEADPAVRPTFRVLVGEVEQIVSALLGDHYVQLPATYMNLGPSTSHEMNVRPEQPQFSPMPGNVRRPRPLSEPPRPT

The term GI50 denotes the concentration that inhibits growth by half. As for `C[C@H](O)CNc1nccc(-n2ccnc2Cc2cccc(NC(=O)Nc3ccc(C(F)(F)F)c(Cl)c3)c2)n1` [Example 23, (S)-1-(3-chloro-4-(trifluoromethyl)phenyl)-3-(3-((1-(2-((2-hydroxypropyl)amino)pyrimidin-4-yl)-1H-imidazol-2-yl)methyl)phenyl)urea], the “potency against A375P, in words” value in assay [1] (A375P cell line, comparison with Sorafenib) is reported as “large potencies; also recorded: better potencies than Sorafenib”. Also, in assay [1] (A375P human melanoma cell line, read-out: A375P (GI50, Unit: μM)), the concentration for 50% growth inhibition (GI50) is 1.82 µM. Besides, the inhibition at 10 µM was determined as 17.6% on Aurora A; 0% at JNK3; 5.8% on LCK; 34.8% on CDK1/cyclin B; 99% on BRAF (V600E) (read-out: Inhibition Rate (Unit: %) BRAF (V600E)); 0.42% on RON/MST1R. The inhibition at 10 µM on BRAF (read-out: Inhibition Rate (Unit: %) BRAF) worked out at 99%. In the assay on PKA, the “Inhibition Rate (Unit: %) PKA” value stood at 0%. At BRAF (V600E) (10 µM), the “Inhibition Rate (Unit: %) BRAF (V600E)” value turned out to be 96.1%. Moreover, at BRAF (10 µM), the “Inhibition Rate (Unit: %) BRAF” value is 99.9%.
